Results on 3 compounds are retold here after article PMC11297040, “Engineering of a mammalian VMAT2 for cryo-EM analysis results in non-canonical protein folding” (Nature Communications, 2024).

For one assay, the target named is T1, OaVMAT2WT (Ovis aries, UniProt A0A6P7DBQ8).
T1 construct: gene JEQ12_011695; full-length wild type; N-terminal His10-BRIL-TEV and C-terminal TEV-BRIL-His10 tags, released by TEV cleavage (called His-tagged in MST); Pichia pastoris GS115; DDM; monomer on crosslinking
Kind of assay: microscale thermophoresis (RED-Tris-NTA labelled protein). The assay is classed as binding. In general terms: MST reads how a fluorescent partner responds to local heating, with and without ligand.

For the next assay, the target named is T2, XlVMAT2WT (Xenopus laevis, UniProt A0A1L8FIB7).
T2 construct: gene LOC108696020; full-length wild type, 514 residues, monomer; N-terminal His10-BRIL-TEV and C-terminal TEV-BRIL-His10 tags, released by TEV cleavage (called His-tagged in MST); Pichia pastoris GS115; DDM
Described as above. It is filed as binding.

Assay [1] concerns the target T3, HsVMAT2 (Homo sapiens, UniProt Q05940).
T3 construct: gene SLC18A2; full-length; N-terminal His10-BRIL-TEV and C-terminal TEV-BRIL-His10 tags, released by TEV cleavage (called His-tagged in MST); Pichia pastoris GS115; DDM
Described as above. The assay is classed as binding. The source says: microscale thermophoresis (RED-Tris-NTA labelled protein) on HsVMAT2 | MST fitting curves of SER binding to HsVMAT2 WT and variants as indicated

Assay [2] has as its target T4, HsVMAT2 (Homo sapiens, UniProt Q05940, D399A).
T4 construct: gene SLC18A2; full-length; N-terminal His10-BRIL-TEV and C-terminal TEV-BRIL-His10 tags, released by TEV cleavage (called His-tagged in MST); Pichia pastoris GS115; DDM
Described as above. The assay is classed as binding.

Assay [3] deals with T5, HsVMAT2 (Homo sapiens, UniProt Q05940, L228A).
T5 construct: gene SLC18A2; full-length; N-terminal His10-BRIL-TEV and C-terminal TEV-BRIL-His10 tags, released by TEV cleavage (called His-tagged in MST); Pichia pastoris GS115; DDM
The description is as above. It is filed as binding. The source says: (§1) microscale thermophoresis (RED-Tris-NTA labelled protein) on HsVMAT2 | L228A, V232A, E312A, Y341A, D399A and Y433A, reduced their binding affinities for serotonin

In assay [4] the target is T6, HsVMAT2 (Homo sapiens, UniProt Q05940, V232A).
T6 construct: gene SLC18A2; full-length; N-terminal His10-BRIL-TEV and C-terminal TEV-BRIL-His10 tags, released by TEV cleavage (called His-tagged in MST); Pichia pastoris GS115; DDM
The description is as above. It is filed as binding.
From the text: as §1

Assay [5] concerns the target T7, HsVMAT2 (Homo sapiens, UniProt Q05940, Y341A).
T7 construct: gene SLC18A2; full-length; N-terminal His10-BRIL-TEV and C-terminal TEV-BRIL-His10 tags, released by TEV cleavage (called His-tagged in MST); Pichia pastoris GS115; DDM
Described as above. The assay is classed as binding.
From the text: as §1

Assay [6] concerns the target T8, HsVMAT2 (Homo sapiens, UniProt Q05940, Y433A).
T8 construct: gene SLC18A2; full-length; N-terminal His10-BRIL-TEV and C-terminal TEV-BRIL-His10 tags, released by TEV cleavage (called His-tagged in MST); Pichia pastoris GS115; DDM
Described as above. The assay is classed as binding.
From the text: as §1

The target of assay [7] is OaVMAT2_(TM8/9-BRIL): sheep (Ovis aries) VMAT2 with the TM8/9 loop replaced by BRIL (Ovis aries | not stated). Kind of assay: cryo-EM structure; single-particle analysis of OaVMAT2_(TM8/9-BRIL) in 20 mM Tris-HCl pH 7.5, 150 mM NaCl, 5 mM beta-mercaptoethanol, 0.4 mM DDM; C2 symmetry imposed; 3.2 A.
The target is the same in assay [8]. Kind of assay: cross-linking; ~10 ug purified protein in 20 mM HEPES-Na pH 7.5, 150 mM NaCl, 5 mM beta-mercaptoethanol, 0.4 mM DDM; glutaraldehyde 4, 2 and 1 mM, 10 min, room temperature; SDS-PAGE.

T2 sequence (A0A1L8FIB7 1-514): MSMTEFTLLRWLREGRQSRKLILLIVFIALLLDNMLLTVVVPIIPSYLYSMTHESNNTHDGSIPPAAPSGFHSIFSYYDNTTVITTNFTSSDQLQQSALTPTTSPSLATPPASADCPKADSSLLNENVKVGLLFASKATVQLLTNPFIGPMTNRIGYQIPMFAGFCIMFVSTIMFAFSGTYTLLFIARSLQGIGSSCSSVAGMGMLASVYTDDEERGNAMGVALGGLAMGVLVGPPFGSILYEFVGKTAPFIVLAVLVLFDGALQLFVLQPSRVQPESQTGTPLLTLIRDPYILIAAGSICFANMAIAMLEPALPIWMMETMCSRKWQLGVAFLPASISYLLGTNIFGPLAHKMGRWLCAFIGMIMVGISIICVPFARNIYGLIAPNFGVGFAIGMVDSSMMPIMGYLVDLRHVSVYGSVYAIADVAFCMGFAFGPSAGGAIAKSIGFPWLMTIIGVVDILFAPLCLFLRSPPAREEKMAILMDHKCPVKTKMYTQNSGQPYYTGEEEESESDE
T1 sequence (A0A6P7DBQ8 1-517): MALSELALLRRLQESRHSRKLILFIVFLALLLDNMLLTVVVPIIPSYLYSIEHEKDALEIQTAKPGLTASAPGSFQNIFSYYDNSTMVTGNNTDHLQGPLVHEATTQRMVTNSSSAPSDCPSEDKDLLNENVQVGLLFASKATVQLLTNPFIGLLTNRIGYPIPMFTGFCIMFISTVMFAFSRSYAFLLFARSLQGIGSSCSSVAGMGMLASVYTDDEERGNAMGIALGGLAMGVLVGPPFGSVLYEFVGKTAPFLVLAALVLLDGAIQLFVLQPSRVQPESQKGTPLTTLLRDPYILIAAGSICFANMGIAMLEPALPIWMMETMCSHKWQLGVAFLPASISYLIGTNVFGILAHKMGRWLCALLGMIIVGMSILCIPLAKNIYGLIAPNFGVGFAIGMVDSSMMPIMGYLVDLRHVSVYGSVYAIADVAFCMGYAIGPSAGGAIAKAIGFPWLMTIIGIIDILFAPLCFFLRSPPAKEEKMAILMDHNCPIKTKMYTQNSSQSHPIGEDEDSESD
T8 sequence (Q05940 whole entry Y433A): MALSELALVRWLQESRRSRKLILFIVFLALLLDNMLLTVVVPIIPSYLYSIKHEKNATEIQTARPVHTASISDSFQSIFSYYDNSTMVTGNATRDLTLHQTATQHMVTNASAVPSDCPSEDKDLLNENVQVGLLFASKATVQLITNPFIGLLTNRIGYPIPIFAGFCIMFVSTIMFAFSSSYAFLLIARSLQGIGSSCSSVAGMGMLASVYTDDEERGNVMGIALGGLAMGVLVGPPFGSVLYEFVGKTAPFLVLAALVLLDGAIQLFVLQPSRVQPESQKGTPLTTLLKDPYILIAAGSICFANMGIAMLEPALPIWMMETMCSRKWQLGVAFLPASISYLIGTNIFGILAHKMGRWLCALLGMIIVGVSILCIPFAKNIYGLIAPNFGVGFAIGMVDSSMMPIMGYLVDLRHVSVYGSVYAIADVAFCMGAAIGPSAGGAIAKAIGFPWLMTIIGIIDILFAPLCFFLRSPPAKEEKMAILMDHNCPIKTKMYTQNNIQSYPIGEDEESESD
T5 sequence (Q05940 whole entry L228A): as the sequence (Q05940 whole entry Y433A) above, with L228A, A433Y counted along it
T3 sequence (Q05940 whole entry): as the sequence (Q05940 whole entry Y433A) above, with A433Y counted along it
T7 sequence (Q05940 whole entry Y341A): as the sequence (Q05940 whole entry Y433A) above, with Y341A, A433Y counted along it
T4 sequence (Q05940 whole entry D399A): as the sequence (Q05940 whole entry Y433A) above, with D399A, A433Y counted along it
T6 sequence (Q05940 whole entry V232A): as the sequence (Q05940 whole entry Y433A) above, with V232A, A433Y counted along it

Turning to `COC(=O)[C@H]1[C@H]2C[C@@H]3c4[nH]c5cc(OC)ccc5c4CCN3C[C@H]2C[C@@H](OC(=O)c2cc(OC)c(OC)c(OC)c2)[C@@H]1OC` [reserpine], the dissociation constant Kd worked out at 16 ± 5.7 nM on OaVMAT2WT and 17 ± 8.8 nM on XlVMAT2WT.

`NCCc1c[nH]c2ccc(O)cc12` [serotonin]: the dissociation constant Kd on HsVMAT2 [1] came to 450 ± 50 nM; on OaVMAT2WT, 210 ± 60 nM; at XlVMAT2WT, 430 ± 220 nM; at HsVMAT2 [2] it was 22100 ± 3600 nM; on HsVMAT2 [3] it was 3150 ± 550 nM; on HsVMAT2 [4] it was 3850 ± 1610 nM. The values for the Kd at HsVMAT2 [5] and on HsVMAT2 [6] were 810 ± 220 nM and 3910 ± 1300 nM, respectively.

For “OaVMAT2_(TM8/9-BRIL): sheep (Ovis aries) VMAT2 with the TM8/9 loop replaced by BRIL”, the stoichiometry N in assay [7] and in assay [8] was 2 throughout.

What is called Kd is the concentration at which binding is half-saturated. Lower therefore signals tighter binding. The term stoichiometry N denotes the number of molecules, sites or subunits per partner or assembly.
